Measured values: PMC9481151, “Discovery of new symmetrical and asymmetrical nitrile-containing 1,4-dihydropyridine derivatives as dual kinases and P-glycoprotein inhibitors: synthesis, in vitro assays, and in silico studies” (Journal of Enzyme Inhibition and Medicinal Chemistry, 2022)

Key:
SW-620 = assay: NCI single dose (10 µM) SRB screen; format: cell-based, human; conditions: colon cancer, 48 h
HOP-62 = assay: NCI single dose (10 µM) SRB screen; format: cell-based, human; conditions: non-small cell lung cancer, 48 h
Candida albicans = assay: Agar well diffusion method
Bacillus subtilis = assay: Agar well diffusion method; conditions: relative to ciprofloxacin
HCC-2998 = assay: NCI single dose (10 µM) SRB screen; format: cell-based, human; conditions: colon cancer, 48 h
SR = assay: NCI single dose (10 µM) SRB screen; format: cell-based, human; conditions: leukaemia, 48 h
BT-549 = assay: NCI single dose (10 µM) SRB screen; format: cell-based, human; conditions: breast cancer, 48 h
T-47D = assay: NCI single dose (10 µM) SRB screen; format: cell-based, human; conditions: breast cancer, 48 h
HCT-15 = assay: NCI single dose (10 µM) SRB screen; format: cell-based, human; conditions: colon cancer, 48 h
HS578T = assay: NCI single dose (10 µM) SRB screen; format: cell-based, human; conditions: breast cancer, 48 h
NCI-H322M = assay: NCI single dose (10 µM) SRB screen; format: cell-based; conditions: non-small cell lung cancer, 48 h
MOLT-4 = assay: NCI single dose (10 µM) SRB screen; format: cell-based, human; conditions: leukaemia, 48 h
Staphylococcus aureus = assay: Agar well diffusion method
MDA-MB-468 = assay: NCI single dose (10 µM) SRB screen; format: cell-based, human; conditions: breast cancer, 48 h
Escherichia coli = assay: Agar well diffusion method
IGROV1 = assay: NCI single dose (10 µM) SRB screen; format: cell-based, human; conditions: ovarian cancer, 48 h
LOX IMVI = assay: NCI single dose (10 µM) SRB screen; format: cell-based, human; conditions: melanoma, 48 h
UACC-62 = assay: NCI single dose (10 µM) SRB screen; format: cell-based, human; conditions: melanoma, 48 h
Aspergillus flavus = assay: Agar well diffusion method
UO-31 = assay: NCI single dose (10 µM) SRB screen; format: cell-based, human; conditions: renal cancer, 48 h
OVCAR-8 = assay: NCI single dose (10 µM) SRB screen; format: cell-based, human; conditions: ovarian cancer, 48 h
SNB-19 = assay: NCI single dose (10 µM) SRB screen; format: cell-based, human; conditions: CNS cancer, 48 h
SN12C = assay: NCI single dose (10 µM) SRB screen; format: cell-based, human; conditions: renal cancer, 48 h
786-0 = assay: NCI single dose (10 µM) SRB screen; format: cell-based, human; conditions: renal cancer, 48 h
NCI-H23 = assay: NCI single dose (10 µM) SRB screen; format: cell-based, human; conditions: non-small cell lung cancer, 48 h
SK-MEL-28 = assay: NCI single dose (10 µM) SRB screen; format: cell-based, human; conditions: melanoma, 48 h
NCI-H522 = assay: NCI single dose (10 µM) SRB screen; format: cell-based, human; conditions: non-small cell lung cancer, 48 h
NCI/ADR-RES = assay: NCI single dose (10 µM) SRB screen; format: cell-based, human; conditions: ovarian cancer, 48 h
MDA-MB-435 = assay: NCI single dose (10 µM) SRB screen; format: cell-based, human; conditions: melanoma, 48 h
RXF 393 = assay: NCI single dose (10 µM) SRB screen; format: cell-based, human; conditions: renal cancer, 48 h
MALME-3M = assay: NCI single dose (10 µM) SRB screen; format: cell-based, human; conditions: melanoma, 48 h
DU-145 = assay: NCI single dose (10 µM) SRB screen; format: cell-based, human; conditions: prostate cancer, 48 h
SF-268 = assay: NCI single dose (10 µM) SRB screen; format: cell-based, human; conditions: CNS cancer, 48 h
UACC-257 = assay: NCI single dose (10 µM) SRB screen; format: cell-based, human; conditions: melanoma, 48 h
NCI-H226 = assay: NCI single dose (10 µM) SRB screen; format: cell-based, human; conditions: non-small cell lung cancer, 48 h
SF-539 = assay: NCI single dose (10 µM) SRB screen; format: cell-based, human; conditions: CNS cancer, 48 h
OVCAR-3 = assay: NCI single dose (10 µM) SRB screen; format: cell-based, human; conditions: ovarian cancer, 48 h
A549/ATCC = assay: NCI single dose (10 µM) SRB screen; format: cell-based, human; conditions: non-small cell lung cancer, 48 h
M14 = assay: NCI single dose (10 µM) SRB screen; format: cell-based, human; conditions: melanoma, 48 h
NCI 60 cancer cell lines = assay: NCI single dose (10 µM) SRB screen, mean over panel; format: cell-based, human; conditions: mean over 60 cell lines, 48 h
MDA-MB-231 = assay: NCI single dose (10 µM) SRB screen; format: cell-based, human; conditions: breast cancer, 48 h
RPMI-8226 = assay: NCI single dose (10 µM) SRB screen; format: cell-based, human; conditions: leukaemia, 48 h
U251 = assay: NCI single dose (10 µM) SRB screen; format: cell-based, human; conditions: CNS cancer, 48 h
HOP-92 = assay: NCI single dose (10 µM) SRB screen; format: cell-based, human; conditions: non-small cell lung cancer, 48 h
SF-295 = assay: NCI single dose (10 µM) SRB screen; format: cell-based, human; conditions: CNS cancer, 48 h
TK-10 = assay: NCI single dose (10 µM) SRB screen; format: cell-based, human; conditions: renal cancer, 48 h
SNB-75 = assay: NCI single dose (10 µM) SRB screen; format: cell-based, human; conditions: CNS cancer, 48 h
OVCAR-4 = assay: NCI single dose (10 µM) SRB screen; format: cell-based, human; conditions: ovarian cancer, 48 h
PC-3 = assay: NCI single dose (10 µM) SRB screen; format: cell-based, human; conditions: prostate cancer, 48 h
COLO 205 = assay: NCI single dose (10 µM) SRB screen; format: cell-based, human; conditions: colon cancer, 48 h
CAKI-1 = assay: NCI single dose (10 µM) SRB screen; format: cell-based, human; conditions: renal cancer, 48 h

SMILES: COC(=O)C1=C(C)NC(C)=C(C(=O)OCC(C)C)C1c1cccc(C#N)c1 (racemic) [Compound 2b, (±)-3-Isobutyl 5-methyl 4-(3-cyanophenyl)-2,6-dimethyl-1,4-dihydropyridine-3,5-dicarboxylate]
- GI% SW-620 (SW-620): – (Only GI% ≥ 10 are shown)
- GI% HOP-62 (HOP-62): – (Only GI% ≥ 10 are shown)
- zone of inhibition at 1000 µg/mL (Candida albicans; Candida albicans, 24 h, read-out: Diameter of inhibition zone, C. albicans): 7 mm
- % activity index, C. albicans (Candida albicans; relative to clotrimazole): 25.9%
- % activity index, B. subtilis (Bacillus subtilis): – (Values below 25 are of limited value and not shown as they refer either to inactive or non-diffusing compounds)
- GI% HCC-2998 (HCC-2998): – (Only GI% ≥ 10 are shown)
- GI% SR (SR): 29%
- GI% BT-549 (BT-549): – (Only GI% ≥ 10 are shown)
- GI% T-47D (T-47D): 25%
- GI% HCT-15 (HCT-15): – (Only GI% ≥ 10 are shown)
- GI% HS578T (HS578T): 14%
- GI% NCI-H322M (NCI-H322M): – (Only GI% ≥ 10 are shown)
- GI% MOLT-4 (MOLT-4): 16%
- zone of inhibition at 1000 µg/mL (Staphylococcus aureus; Staphylococcus aureus, 24 h, read-out: Diameter of inhibition zone, S. aureus): 9 mm
- % activity index, S. aureus (Staphylococcus aureus; relative to ciprofloxacin): 37.5%
- GI% MDA-MB-468 (MDA-MB-468): – (Only GI% ≥ 10 are shown)
- zone of inhibition at 1000 µg/mL (Escherichia coli; Escherichia coli, 24 h, read-out: Diameter of inhibition zone, E. coli): 9 mm
- % activity index, E. coli (Escherichia coli; relative to ciprofloxacin): 34.6%
- GI% IGROV1 (IGROV1): 12%
- GI% LOX IMVI (LOX IMVI): – (Only GI% ≥ 10 are shown)
- GI% UACC-62 (UACC-62): 21%
- zone of inhibition at 1000 µg/mL (Aspergillus flavus; Aspergillus flavus, 24 h, read-out: Diameter of inhibition zone, A. flavus): 11 mm
- % activity index, A. flavus (Aspergillus flavus; relative to clotrimazole): 44%
- GI% UO-31 (UO-31): 11%
- GI% OVCAR-8 (OVCAR-8): – (Only GI% ≥ 10 are shown)
- GI% SNB-19 (SNB-19): – (Only GI% ≥ 10 are shown)
- GI% SN12C (SN12C): – (Only GI% ≥ 10 are shown)
- GI% 786-0 (786-0): – (Only GI% ≥ 10 are shown)
- GI% NCI-H23 (NCI-H23): – (Only GI% ≥ 10 are shown)
- GI% SK-MEL-28 (SK-MEL-28): – (Only GI% ≥ 10 are shown)
- GI% NCI-H522 (NCI-H522): 15%
- GI% NCI/ADR-RES (NCI/ADR-RES): – (Only GI% ≥ 10 are shown)
- GI% MDA-MB-435 (MDA-MB-435): – (Only GI% ≥ 10 are shown)
- GI% RXF 393 (RXF 393): – (Only GI% ≥ 10 are shown)
- GI% MALME-3M (MALME-3M): – (Only GI% ≥ 10 are shown)
- GI% DU-145 (DU-145): – (Only GI% ≥ 10 are shown)
- GI% SF-268 (SF-268): – (Only GI% ≥ 10 are shown)
- GI% UACC-257 (UACC-257): – (Only GI% ≥ 10 are shown)
- GI% NCI-H226 (NCI-H226): 10%
- GI% SF-539 (SF-539): – (Only GI% ≥ 10 are shown)
- GI% OVCAR-3 (OVCAR-3): – (Only GI% ≥ 10 are shown)
- GI% A549/ATCC (A549/ATCC): – (Only GI% ≥ 10 are shown)
- GI% M14 (M14): – (Only GI% ≥ 10 are shown)
- Mean GI% (NCI 60 cancer cell lines): 5%
- GI% MDA-MB-231 (MDA-MB-231): – (Only GI% ≥ 10 are shown)
- GI% RPMI-8226 (RPMI-8226): – (Only GI% ≥ 10 are shown)
- GI% U251 (U251): – (Only GI% ≥ 10 are shown)
- GI% HOP-92 (HOP-92): 17%
- GI% SF-295 (SF-295): 18%
- GI% TK-10 (TK-10): – (Only GI% ≥ 10 are shown)
- GI% SNB-75 (SNB-75): 22%
- GI% OVCAR-4 (OVCAR-4): – (Only GI% ≥ 10 are shown)
- GI% PC-3 (PC-3): 22%
- GI% COLO 205 (COLO 205): – (Only GI% ≥ 10 are shown)
- GI% CAKI-1 (CAKI-1): 28%
